In patent US8178506B2, “Oligomeric compounds and compositions for use in modulation of small non-coding RNAs” (Regulus Therapeutics Inc., priority 2003, dated 2012):
In the oligonucleotide strings, read from the 5' end, every base follows the letter of its sugar. An asterisk marks phosphorothioate; unmarked linkages are phosphodiester. Other units and linkages are bracketed, terminal groups are in braces. A string of capitals states the bases alone. e = 2'-O-(2-methoxyethyl) (MOE); [5mC] = 5-methylcytosine

Experiments:
Format in all cases: cell-based, human
[1] = tested on: adipocytes; assay: Triglyceride accumulation assay in adipocytes; details: for Triglycerides: differentiating adipocytes day 10 post-induction, 24 hours after treatment
[2] = tested on: aP2; assay: aP2 mRNA expression in adipocytes (real-time PCR); details: for aP2 mRNA: differentiating adipocytes transfected with oligomeric compound, Table 75
[3] = tested on: HSL; assay: HSL mRNA expression in adipocytes (real-time PCR)
[4] = tested on: Glut4; assay: Glut4 mRNA expression in adipocytes (real-time PCR)
[5] = tested on: PPARγ; assay: PPARγ mRNA expression in adipocytes (real-time PCR); details: for PPAR-gamma mRNA: differentiating adipocytes day 10 post-induction, 24 hours after treatment
[6] = Table 17, differentiating adipocytes, control = treatment with ISIS 342673
[7] = differentiating adipocytes transfected with oligomeric compound, Table 75
[8] = Table 18, differentiating adipocytes, control = treatment with ISIS 342673
[9] = 50 nM, differentiating adipocytes day 10 post-induction, 24 hours after treatment
[10] = 100 nM, differentiating adipocytes day 10 post-induction, 24 hours after treatment
[11] = 200 nM, differentiating adipocytes day 10 post-induction, 24 hours after treatment
[12] = 300 nM, differentiating adipocytes day 10 post-induction, 24 hours after treatment

Row | Substance | TG (triglyceride accumulation) [1, 6] | TG (triglyceride accumulation) [1, 7] | AP2 mRNA [2, 6] | aP2 mRNA [2] | HSL mRNA [3, 6] | HSL mRNA [3, 7] | GLUT4 mRNA [4, 6] | GLUT4 mRNA [4, 7] | PPAR gamma mRNA [5, 6] | PPAR gamma mRNA [5, 7] | TG (triglyceride accumulation) [1, 8] | AP2 mRNA [2, 8] | HSL mRNA [3, 8] | GLUT4 mRNA [4, 8] | PPAR gamma mRNA [5, 8] | further results
1 | 328119 (antisense eA*eA*eT*eA*eA*e[5mC]*eA*e[5mC]*eA*e[5mC]*eA*eT*e[5mC]*e[5mC]*eA*e[5mC]*eT*eT*eT*eA*eA) [compound 328119] | 90.2 percentage of control | 109 percentage of untreated control (UTC) | 99.9 percentage of control | 119 percentage of untreated control (UTC) | 98.5 percentage of control | 101 percentage of untreated control (UTC) | 95.2 percentage of control | 104 percentage of untreated control (UTC) | 82.7 percentage of control | 102 percentage of untreated control (UTC) | – | – | – | – | – | –
2 | 342673 (antisense eA*eG*eA*e[5mC]*eT*eA*eG*e[5mC]*eG*eG*eT*eA*eT*e[5mC]*eT*eT*eT*eA*eT*e[5mC]*e[5mC]*e[5mC]) [compound 342673] | 100.0 percentage of control | – | 100.0 percentage of control | – | 100.0 percentage of control | – | 100.0 percentage of control | – | 100.0 percentage of control | – | 100 percentage of control | 100 percentage of control | 100 percentage of control | 100 percentage of control | 100 percentage of control | Triglycerides ([1]; 50 nM): 94.2 % UTC; Triglycerides ([1]; 100 nM): 105.3 % UTC; Triglycerides ([1]; 200 nM): 98.3 % UTC; Triglycerides ([1]; 300 nM): 108.2 % UTC; AP2 mRNA [2, 9]: 82.4 % UTC; AP2 mRNA [2, 10]: 90.3 % UTC; AP2 mRNA [2, 11]: 81.1 % UTC; AP2 mRNA [2, 12]: 70.9 % UTC; HSL mRNA [3, 9]: 92.0 % UTC; HSL mRNA [3, 10]: 95.6 % UTC; HSL mRNA [3, 11]: 97.3 % UTC; HSL mRNA [3, 12]: 85.2 % UTC; GLUT4 mRNA [4, 9]: 94.9 % UTC; GLUT4 mRNA [4, 10]: 90.7 % UTC; GLUT4 mRNA [4, 11]: 97.6 % UTC; GLUT4 mRNA [4, 12]: 102.7 % UTC; PPAR-gamma mRNA ([5]; 50 nM): 77.5 % UTC; PPAR-gamma mRNA ([5]; 100 nM): 89.9 % UTC; PPAR-gamma mRNA ([5]; 200 nM): 94.6 % UTC; PPAR-gamma mRNA ([5]; 300 nM): 85.8 % UTC
3 | 328111 (antisense eT*e[5mC]*e[5mC]*eG*eA*eG*eT*e[5mC]*eG*eG*eA*eG*eG*eA*eG*eG*eA*eG*eG*eA*eA) [compound 328111] | – | 65 percentage of untreated control (UTC) | – | 79 percentage of untreated control (UTC) | – | 77 percentage of untreated control (UTC) | – | 50 percentage of untreated control (UTC) | – | 65 percentage of untreated control (UTC) | 101.9 percentage of control | 71.5 percentage of control | 69.5 percentage of control | 59.6 percentage of control | 74.9 percentage of control | –
4 | 328115 (antisense eA*eG*eA*eA*eG*eG*eT*eG*eG*eG*eG*eA*eG*e[5mC]*eA*eG*e[5mC]*eG*eT*e[5mC]*eA) [compound 328115] | – | 53 percentage of untreated control (UTC) | – | 74 percentage of untreated control (UTC) | – | 75 percentage of untreated control (UTC) | – | 84 percentage of untreated control (UTC) | – | 80 percentage of untreated control (UTC) | 108.7 percentage of control | 80.0 percentage of control | 89.0 percentage of control | 132.0 percentage of control | 95.8 percentage of control | –
5 | 328138 (eG*eA*eG*e[5mC]*eT*eG*e[5mC]*eT*e[5mC]*eA*eG*e[5mC]*eT*eG*eG*e[5mC]*e[5mC]*eA*eT*e[5mC]*eA; anti-miR) [compound 328138] | 100.6 percentage of control | 80 percentage of untreated control (UTC) | 85.3 percentage of control | 52 percentage of untreated control (UTC) | 89.8 percentage of control | 56 percentage of untreated control (UTC) | 86.8 percentage of control | 52 percentage of untreated control (UTC) | 83.8 percentage of control | 63 percentage of untreated control (UTC) | – | – | – | – | – | –
6 | 328117 (antisense eT*e[5mC]*e[5mC]*eA*e[5mC]*eA*eA*eA*eG*e[5mC]*eT*eG*eA*eA*e[5mC]*eA*eT*eG*eT*e[5mC]*eT) [compound 328117] | 55.0 percentage of control | 16 percentage of untreated control (UTC) | 65.4 percentage of control | 28 percentage of untreated control (UTC) | 61.7 percentage of control | 18 percentage of untreated control (UTC) | 68.1 percentage of control | 13 percentage of untreated control (UTC) | 64.1 percentage of control | 42 percentage of untreated control (UTC) | – | – | – | – | – | –
7 | 328125 (antisense eT*eA*eT*eG*eA*eA*eA*eT*eG*e[5mC]*e[5mC]*eA*eG*eA*eG*e[5mC]*eT*eG*e[5mC]*e[5mC]*eA) [compound 328125] | 81.7 percentage of control | 44 percentage of untreated control (UTC) | 86.9 percentage of control | 75 percentage of untreated control (UTC) | 75.8 percentage of control | 48 percentage of untreated control (UTC) | 99.5 percentage of control | 65 percentage of untreated control (UTC) | 76.1 percentage of control | 68 percentage of untreated control (UTC) | – | – | – | – | – | –
8 | 328123 (antisense eT*eT*eA*e[5mC]*eA*eG*eG*eT*eG*e[5mC]*eT*eG*e[5mC]*eA*eA*e[5mC]*eT*eG*eG*eA*eA) [compound 328123] | 120.8 percentage of control | 54 percentage of untreated control (UTC) | 106.7 percentage of control | 119 percentage of untreated control (UTC) | 85.4 percentage of control | 91 percentage of untreated control (UTC) | 162.4 percentage of control | 129 percentage of untreated control (UTC) | 74.7 percentage of control | 88 percentage of untreated control (UTC) | – | – | – | – | – | –
9 | 341806 (antisense GCCAATATTTCTGTGCTGCTA; all 2'-MOE, all phosphorothioate, methylation of C not given here) [compound 341806] | – | – | – | 83 percentage of untreated control (UTC) | – | 77 percentage of untreated control (UTC) | – | 58 percentage of untreated control (UTC) | – | 70 percentage of untreated control (UTC) | 83.2 percentage of control | 75.8 percentage of control | 73.4 percentage of control | 69.4 percentage of control | 72.6 percentage of control | –
10 | 328137 (eG*eT*eA*eA*eG*e[5mC]*eG*e[5mC]*eA*eG*e[5mC]*eT*e[5mC]*e[5mC]*eA*e[5mC]*eA*eG*eG*e[5mC]*eT; anti-miR) [compound 328137] | 83.2 percentage of control | 37 percentage of untreated control (UTC) | 99.6 percentage of control | 45 percentage of untreated control (UTC) | 86.3 percentage of control | 25 percentage of untreated control (UTC) | 88.5 percentage of control | 29 percentage of untreated control (UTC) | 85.7 percentage of control | 36 percentage of untreated control (UTC) | – | – | – | – | – | –
